Paper PMC10527105, “Chirality Matters: Fine-Tuning of Novel Monoamine Reuptake Inhibitors Selectivity through Manipulation of Stereochemistry” (Biomolecules, 2023)
Where two headings read alike, the source gives them in different places.

Experiments:
Format in all cases: cell-based
[1] = target: T1, human dopamine transporter/SLC6A3 (DAT) (Homo sapiens, UniProt Q01959); assay: Cellular uptake experiments: [3H]-dopamine reuptake inhibition in transporter-expressing HEK293 cells; settings: cells stably expressing DAT, [3H]-dopamine 1 µM, screening cut-off 50 µM
T1 construct: expressed in transfected cells; host or cells: HEK293
Experimental: (§1) Cell culture. Human embryonic kidney (HEK) 293 or SK-N-MC (human neuroblastoma) cells were grown in minimum essential medium with Earle’s salts and L-glutamine, 10% heat-inactivated fetal bovine serum, and 50 mg/L gentamicin. Cells were grown in 100- or 60-mm diameter tissue culture dishes (polystyrene, Falcon) at 37 °C under an atmosphere of 5% CO2/95% air. The human dopamine transporter/SLC6A3 (DAT), noradrenaline transporter/SLC6A2 (NET), or human serotonin transporter/SLC6A4 (SERT) cDNA was stably expressed using methods as described previously.
(§2) Cellular uptake experiments. The transporter-expressing HEK293 cells were seeded in poly-D-lysine-coated 24-well plates (1 × 10^5 cells/well) and, one day later, each well was washed with 0.5 mL uptake buffer and incubated with 0.5 mL buffer containing various concentrations of the drugs. Uptake was started by the addition of [^3H]-dopamine, [^3H]-noradrenaline, or [^3H]-serotonin at a final concentration of 1 µM (specific activity 0.14 Ci/mmol) after 5 min of preincubation. After incubation for 2.5 min (SERT-cells: 5 min) at 25 °C, it was stopped by aspirating the uptake buffer and washing each well twice with 1 mL ice-cold buffer. Nonspecific uptake was determined in the presence of 10 µM mazindol (DAT- and NET-cells) or 10 µM clomipramine (SERT-cells). The radioactivity remaining in each well was determined by incubating with 0.4 mL 1% sodium dodecyl sulphate and transferring this solution into scintillation vials containing 3 mL of scintillation cocktail (Ultima Gold MV, Packard, Dovners Grove, IL, USA). The uptake buffer consisted of (mmol/L): 4 Tris–HCl; 6.25 4-(2-hydroxyethyl)-1-piperazineethanesulfonic acid (HEPES); 120 NaCl; 5 KCl; 1.2 CaCl2; 1.2 MgSO4; 5.6 D-glucose; 0.5 ascorbic acid; pH 7.1.

[2] = target: T2, noradrenaline transporter/SLC6A2 (NET) (Homo sapiens, UniProt P23975); assay: Cellular uptake experiments: [3H]-noradrenaline reuptake inhibition in transporter-expressing HEK293 cells
T2 construct: expressed in transfected cells; host or cells: HEK293
Experimental: as §1, §2

[3] = target: T3, human serotonin transporter/SLC6A4 (SERT) (Homo sapiens, UniProt P31645); assay: Cellular uptake experiments: [3H]-serotonin reuptake inhibition in transporter-expressing HEK293 cells
T3 construct: expressed in transfected cells; host or cells: HEK293
Experimental: as §1, §2

[4] = read-out: Reuptake Inhibition (IC50 ± SE, µM) DAT
[5] = cells stably expressing NET, [3H]-noradrenaline 1 µM, screening cut-off 50 µM, read-out: Reuptake Inhibition (IC50 ± SE, µM) NET
[6] = cells stably expressing SERT; [3H]-serotonin 1 µM; screening cut-off 50 µM; read-out: Reuptake Inhibition (IC50 ± SE, µM) SERT
[7] = Reuptake Inhibition (IC50 ± SE, µM) DAT
[8] = read-out: Reuptake Inhibition (IC50 ± SE, µM) NET, cells stably expressing NET, [3H]-noradrenaline 1 µM, screening cut-off 50 µM
[9] = read-out: Reuptake Inhibition (IC50 ± SE, µM) SERT; cells stably expressing SERT; [3H]-serotonin 1 µM; screening cut-off 50 µM
[10] = Reuptake Inhibition (IC50 ± SE, µM) SERT, cells stably expressing SERT; [3H]-serotonin 1 µM; screening cut-off 50 µM
[11] = Reuptake Inhibition (IC50 ± SE, µM) NET, cells stably expressing NET, [3H]-noradrenaline 1 µM, screening cut-off 50 µM

T3 sequence (P31645 whole entry): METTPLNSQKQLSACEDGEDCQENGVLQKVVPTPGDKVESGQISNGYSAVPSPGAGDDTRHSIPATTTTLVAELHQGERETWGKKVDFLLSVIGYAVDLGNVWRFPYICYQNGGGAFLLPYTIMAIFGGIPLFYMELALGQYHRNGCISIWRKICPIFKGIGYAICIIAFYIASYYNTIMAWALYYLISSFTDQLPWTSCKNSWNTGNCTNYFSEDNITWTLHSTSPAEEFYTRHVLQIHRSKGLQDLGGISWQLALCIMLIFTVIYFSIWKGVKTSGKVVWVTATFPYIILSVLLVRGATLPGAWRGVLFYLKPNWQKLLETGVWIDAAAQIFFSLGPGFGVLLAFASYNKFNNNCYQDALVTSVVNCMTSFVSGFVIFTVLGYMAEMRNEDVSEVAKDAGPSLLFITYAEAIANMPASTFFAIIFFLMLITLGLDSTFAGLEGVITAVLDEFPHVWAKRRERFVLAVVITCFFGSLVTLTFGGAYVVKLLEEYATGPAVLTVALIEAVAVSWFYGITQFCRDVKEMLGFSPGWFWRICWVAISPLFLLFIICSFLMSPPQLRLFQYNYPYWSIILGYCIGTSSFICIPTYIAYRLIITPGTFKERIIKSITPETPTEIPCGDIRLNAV
T1 sequence (Q01959 whole entry): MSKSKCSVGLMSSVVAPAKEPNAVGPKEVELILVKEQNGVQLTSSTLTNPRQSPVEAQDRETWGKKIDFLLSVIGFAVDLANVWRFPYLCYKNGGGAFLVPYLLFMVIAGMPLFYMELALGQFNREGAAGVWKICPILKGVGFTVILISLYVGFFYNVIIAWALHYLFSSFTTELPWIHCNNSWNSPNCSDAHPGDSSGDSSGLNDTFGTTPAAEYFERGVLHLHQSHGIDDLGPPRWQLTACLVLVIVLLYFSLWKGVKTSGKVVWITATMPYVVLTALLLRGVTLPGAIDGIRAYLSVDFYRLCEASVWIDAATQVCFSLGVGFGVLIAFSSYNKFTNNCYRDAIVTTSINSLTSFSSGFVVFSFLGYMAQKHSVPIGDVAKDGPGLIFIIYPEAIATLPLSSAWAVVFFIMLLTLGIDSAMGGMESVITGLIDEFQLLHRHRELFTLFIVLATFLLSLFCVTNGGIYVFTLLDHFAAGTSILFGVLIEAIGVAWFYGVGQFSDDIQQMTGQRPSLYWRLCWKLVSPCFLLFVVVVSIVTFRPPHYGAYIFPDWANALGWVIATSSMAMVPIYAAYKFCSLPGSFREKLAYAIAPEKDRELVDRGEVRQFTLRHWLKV
T2 sequence (P23975 whole entry): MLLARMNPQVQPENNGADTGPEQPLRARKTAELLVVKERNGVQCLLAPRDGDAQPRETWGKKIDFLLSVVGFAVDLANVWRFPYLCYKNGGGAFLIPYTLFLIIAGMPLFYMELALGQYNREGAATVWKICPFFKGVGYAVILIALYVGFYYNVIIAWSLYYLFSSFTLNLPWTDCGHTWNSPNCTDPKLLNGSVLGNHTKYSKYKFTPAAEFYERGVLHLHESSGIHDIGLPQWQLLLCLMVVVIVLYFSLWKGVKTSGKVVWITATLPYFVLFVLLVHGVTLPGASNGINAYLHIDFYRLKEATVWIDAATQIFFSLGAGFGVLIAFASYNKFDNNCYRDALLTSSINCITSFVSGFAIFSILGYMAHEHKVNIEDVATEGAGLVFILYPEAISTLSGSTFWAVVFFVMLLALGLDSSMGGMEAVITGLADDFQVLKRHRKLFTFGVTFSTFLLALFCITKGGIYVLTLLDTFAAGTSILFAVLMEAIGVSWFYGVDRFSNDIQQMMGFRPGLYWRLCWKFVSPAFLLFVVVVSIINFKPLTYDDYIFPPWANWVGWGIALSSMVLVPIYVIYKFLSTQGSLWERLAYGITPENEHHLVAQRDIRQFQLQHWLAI

Row | Compound | IC50 [1, 7] [µM] | IC50 [2, 8] [µM] | IC50 [3, 10] [µM] | IC50 [2, 11] [µM] | also measured
1 | [O-][S@+](Cc1cccs1)[C@H](c1ccccc1)c1ccccc1F [Compound 5a, (R,R)-2-((((2-fluorophenyl)(phenyl)methyl)sulfinyl)methyl)thiophene] | – | – | – | – | IC50 [1, 4]: 32.8 ± 0.2 µM; IC50 [2, 5]: > 50 µM; IC50 [3, 6]: > 50 µM
2 | [O-][S+](Cc1cccs1)C(c1ccc(F)cc1)c1ccc(Cl)cc1 (stereo not drawn) [Compound 7u, 2-((((4-chlorophenyl)(4-fluorophenyl)methyl)sulfinyl)methyl)thiophene] | 6.4 ± 0.4 | > 50 | – | – | IC50 [3, 9]: > 50 µM
3 | COc1cccc(C(c2ccccc2)[S+]([O-])Cc2cccs2)c1 (stereo not drawn) [Compound 7s, 2-((((3-methoxyphenyl)(phenyl)methyl)sulfinyl)methyl)thiophene] | 1.56 ± 0.24 | > 50 | > 50 | – | –
4 | [O-][S+](Cc1cccs1)C(c1ccccc1)c1ccccc1I (stereo not drawn) [Compound 7i, 2-((((2-iodophenyl)(phenyl)methyl)sulfinyl)methyl)thiophene] | 28.4 ± 2.8 | > 50 | – | – | IC50 [3, 9]: > 50 µM
5 | [O-][S@+](Cc1cccs1)[C@@H](c1ccccc1)c1ccc(I)cc1 [Compound 6k, (R,S)-2-((((4-iodophenyl)(phenyl)methyl)sulfinyl)methyl)thiophene] | 1.1 ± 0.3 | – | 3.8 ± 0.5 | > 50 | –
6 | [O-][S+](Cc1cccs1)C(c1ccccc1)c1ccccc1Br (stereo not drawn) [Compound 6g, 2-((((2-bromophenyl)(phenyl)methyl)sulfinyl)methyl)thiophene] | 12.1 ± 1 | > 50 | – | – | IC50 [3, 9]: > 50 µM
7 | [O-][S@+](Cc1cccs1)[C@@H](c1ccccc1)c1ccccc1F [Compound 7a, (R,S)-2-((((2-fluorophenyl)(phenyl)methyl)sulfinyl)methyl)thiophene] | – | – | – | – | IC50 [1, 4]: 8.25 ± 0.16 µM; IC50 [2, 5]: > 50 µM; IC50 [3, 6]: > 50 µM
8 | Cc1cccc([C@@H](c2ccccc2)[S@@+]([O-])Cc2cccs2)c1 [Compound 5m, (S,R)-2-(((phenyl(m-tolyl)methyl)sulfinyl)methyl)thiophene] | 2.2 ± 0.4 | – | > 50 | > 50 | –
9 | [O-][S+](Cc1cccs1)C(c1ccccc1)c1ccc(C(F)(F)F)cc1 (stereo not drawn) [Compound 5q, 2-(((phenyl(4-(trifluoromethyl)phenyl)methyl)sulfinyl)methyl)thiophene] | 17 ± 2 | – | > 50 | > 50 | –
10 | COc1cccc(C(c2ccccc2)[S+]([O-])Cc2cccs2)c1 (stereo not drawn) [Compound 8s, 2-((((3-methoxyphenyl)(phenyl)methyl)sulfinyl)methyl)thiophene] | > 50 | > 50 | > 50 | – | –
11 | [O-][S+](Cc1cccs1)C(c1ccccc1)c1cccc(C(F)(F)F)c1 (stereo not drawn) [Compound 8p, 2-(((phenyl(3-(trifluoromethyl)phenyl)methyl)sulfinyl)methyl)thiophene] | 6.2 ± 0.6 | > 50 | 31 ± 5 | – | –
12 | [O-][S+](Cc1cccs1)C(c1ccccc1)c1cccc(C(F)(F)F)c1 (stereo not drawn) [Compound 5p, 2-(((phenyl(3-(trifluoromethyl)phenyl)methyl)sulfinyl)methyl)thiophene] | 5 ± 1 | – | > 50 | > 50 | –
13 | COc1ccccc1[C@H](c1ccccc1)[S@@+]([O-])Cc1cccs1 [Compound 6r, (S,S)-2-((((2-methoxyphenyl)(phenyl)methyl)sulfinyl)methyl)thiophene] | > 50 | – | > 50 | > 50 | –
14 | [O-][S+](Cc1cccs1)C(c1ccccc1)c1cccc(I)c1 (stereo not drawn) [Compound 5j, 2-((((3-iodophenyl)(phenyl)methyl)sulfinyl)methyl)thiophene] | 2.09 ± 0.21 | – | > 50 | > 50 | –
15 | [O-][S@+](Cc1cccs1)[C@@H](c1ccccc1)c1cccc(Br)c1 [Compound 6h, (R,S)-2-((((3-bromophenyl)(phenyl)methyl)sulfinyl)methyl)thiophene] | 15 ± 1 | – | > 50 | – | IC50 [2]: > 50 µM
16 | [O-][S@@+](Cc1cccs1)[C@@H](c1ccccc1)c1ccc(I)cc1 [Compound 7k, (S,S)-2-((((4-iodophenyl)(phenyl)methyl)sulfinyl)methyl)thiophene] | > 50 | – | > 50 | > 50 | –
17 | [O-][S@@+](Cc1cccs1)[C@H](c1ccccc1)c1ccccc1F [Compound 8a, (S,R)-2-((((2-fluorophenyl)(phenyl)methyl)sulfinyl)methyl)thiophene] | – | – | – | – | IC50 [1, 4]: 1.09 ± 0.07 µM; IC50 [2, 5]: > 50 µM; IC50 [3, 6]: > 50 µM
18 | Cc1ccccc1C(c1ccccc1)[S+]([O-])Cc1cccs1 (stereo not drawn) [Compound 5l, 2-(((phenyl(o-tolyl)methyl)sulfinyl)methyl)thiophene] | – | – | – | – | IC50 [1, 4]: 15.6 ± 1 µM; IC50 [2, 5]: > 50 µM; IC50 [3, 6]: > 50 µM
19 | [O-][S@@+](Cc1cccs1)[C@@H](c1ccccc1)c1ccccc1F [Compound 6a, (S,S)-2-((((2-fluorophenyl)(phenyl)methyl)sulfinyl)methyl)thiophene] | – | – | – | – | IC50 [1, 4]: 13.3 ± 1.6 µM; IC50 [2, 5]: > 50 µM; IC50 [3, 6]: > 50 µM
20 | [O-][S@+](Cc1cccs1)[C@H](c1ccccc1)c1ccc(I)cc1 [Compound 8k, (R,R)-2-((((4-iodophenyl)(phenyl)methyl)sulfinyl)methyl)thiophene] | 2.6 ± 0.1 | – | > 50 | > 50 | –
21 | [O-][S+](Cc1cccs1)C(c1ccccc1)c1cccc(C(F)(F)F)c1 (stereo not drawn) [Compound 7p, 2-(((phenyl(3-(trifluoromethyl)phenyl)methyl)sulfinyl)methyl)thiophene] | 10 ± 1 | > 50 | > 50 | – | –
22 | [O-][S@+](Cc1cccs1)[C@@H](c1ccccc1)c1ccc(Cl)cc1 [Compound 6f, (R,S)-2-((((4-chlorophenyl)(phenyl)methyl)sulfinyl)methyl)thiophene] | 46 ± 1 | – | > 50 | > 50 | –
23 | [O-][S+](Cc1cccs1)C(c1ccccc1)c1cccc(F)c1 (stereo not drawn) [Compound 8b, 2-((((3-fluorophenyl)(phenyl)methyl)sulfinyl)methyl)thiophene] | – | – | – | – | IC50 [1, 4]: 9 ± 3 µM; IC50 [2, 5]: > 50 µM; IC50 [3, 6]: > 50 µM
24 | [O-][S+](Cc1cccs1)C(c1ccccc1)c1cccc(I)c1 (stereo not drawn) [Compound 6j, 2-((((3-iodophenyl)(phenyl)methyl)sulfinyl)methyl)thiophene] | 17.7 ± 2.2 | > 50 | – | – | IC50 [3, 9]: > 50 µM
25 | [O-][S+](Cc1cccs1)C(c1ccccc1)c1cccc(C(F)(F)F)c1 (stereo not drawn) [Compound 6p, 2-(((phenyl(3-(trifluoromethyl)phenyl)methyl)sulfinyl)methyl)thiophene] | 22 ± 1 | > 50 | > 50 | – | –
